In US20110045032A1 (priority 2001, published 2011):

Tests used:
Assay type in all cases: in vivo
[1] = test system: dust mite-sensitized cynomolgus monkeys; experiment: Early phase pulmonary function response to allergen (Example 24)
Protocol: (§1) This study defines the effect of 5 days of treatment with DHEA-S on allergen-induced early phase response, and pulmonary inflammation in dust mite-sensitized cynomolgus monkeys. Baseline parameters were measured the week prior to treatment. DHEA-S (5 mg/ml, 2 ml nebulized) or an equivalent volume of saline was delivered once per day via nebulization (Pari LC+) through a canine facemask covering the nose and mouth on days 1 through 5. Allergen challenge and pulmonary function testing were performed on day 3 several hours after drug treatment, and broncho-alveolar lavage fluid BALF) was collected 48 hours post-challenge. The study includes 6 animals studied under a crossover design with a minimum of 4 weeks rest between study arms. The treatment with DHEA-S led to the following changes in the disease status of the animals:
Effects on airway obstruction were measured by changes in dynamic compliance in response to allergen challenge. Allergic Cynomolgus monkeys were monitored for 15 minutes following allergen challenge and the values plotted against time. Changes in dynamic compliance were determined by the % change in compliance as compared to the animal's initial saline value recorded prior to challenge. Changes in response to allergen and/or treatment were calculated using the area under the curve (AUC) where an AUC unit is defined as % change×minutes. Treatment with DHEA-S attenuated the drop in airway compliance following allergen challenge by 87% as compared to saline treatment. With saline treatment, the total AUC was −394±127 units compared to −49±116 units for animals treated with DHEA-S. See, FIGS. 4.3.1.1; 4.3.1.2. This difference in the total AUC for vehicle and DHEA-S treated animals was determined to be significant using Student's t-test for paired observations, p=0.035. Likewise, treatment with DHEA-S attenuated the increase in airway resistance following allergen challenge by 90% as compared to saline treatment.

[2] = test system: dust mite-sensitized cynomolgus monkeys; experiment: BALF cell count after allergen challenge (Example 24); conditions: for total leukocytes in BALF: DHEA-S treatment group
Protocol: as §1, with “animals: […]” for “animals:”

[3] = test system: dust mite-sensitized rabbits; experiment: BALF cell counts, intratracheal powder (Example 25)
Protocol: This study defines the effect of 7 days of treatment with DHEA-S on allergen-induced bronchial hyperresponsiveness (BHR), early and late phase responses, and pulmonary inflammation in dust mite-sensitized rabbits. Baseline BHR and inflammation were first determined. The following week, allergen challenge, pulmonary function testing and BALF were performed on the untreated rabbits. Histamine sensitivity was determined 24 hours post allergen challenge. Rabbits were rested for 3 weeks then baseline values were re-established. The following week, DHEA-S (5 mg/day) was delivered once a day for 7 days via an intratracheal powder injector through the endrotracheal tube of the anesthetized rabbit. On day 8, 24 hrs after the last treatment, allergen challenge, pulmonary function testing and BALF were performed as previously. On day 9, 24 hrs after allergen challenge, a histamine challenge was performed. The drug was not micronized prior to use thus only a portion of the administered date was expected to reach the deep lung. The study includes 4 animals studied under a crossover design. The treatment with DHEA-S led to changes in the disease status of the animals that are described in the following paragraph.

[4] = test system: dust mite-sensitized rabbits; experiment: BALF cell count, nebulized (Example 26)
Protocol: This study defines the effect of 7 days of treatment with DHEA-S on allergen-induced bronchial hyperresponsiveness (BHR), early and late phase responses, and pulmonary inflammation in dust mite-sensitized rabbits. Baseline BHR and inflammation were first determined. DHEA-S (5 mg/ml, 2 ml nebulized) or an equivalent volume of vehicle was delivered once per day via nebulization through a pediatric facemask covering the nose and mouth on days 1 through 7. On day 8, 24 hours after the last treatment, allergen challenge, pulmonary function testing and BALF were performed. On day 9, 24 hours after allergen challenge a histamine challenge was performed and the lungs removed for histology. The study includes 5 animals studied under a crossover design. There was a 3 week resting period between study arms and lungs were taken during the second treatment arm only. The treatment with DHEA-S led to the changes in the disease status of the animals described in the following paragraph.

ragweed-sensitized mice = experiment: BAL cell populations after methacholine challenge (Example 28); conditions: Ragweed alone 13.8%; P<0.05
Protocol: Two groups of mice were sensitized with two intraperitoneal injections and one intranasat administration of ragweed allergen (Ambrosia artemistifolia) on days 0, 4 and 11 respectively. A third group was treated similarly with saline to serve as non-allergic controls. The next two days, the treatment group animals were exposed to DHEA-S delivered as an aerosol (5 mg/ml suspension in saline, 2 ml nebulized) using the whole-body plethysmograph system (Buxco Electronics, Inc., Sharon, Conn.) and a DeVilbiss ultrasonic nebulizer. Twenty-four hours after the last drug exposure, mice were challenged with increasing concentrations of methacholine to determine bronchial hyperresponsiveness and then lavaged to determine relative changes in cell populations in BAL fluid.

[5] = 48 hours after allergen challenge, compared to saline
[6] = 6 hours after allergen-challenge, compared to vehicle control

Compound: CC12CCC3C(CC=C4CC(OS(=O)(=O)[O-])CCC43C)C1CCC2=O.[Na+] (stereo not shown) [DHEA-S, Dehydroepiandrosterone sulfate]
- total area under the curve for the change in compliance following allergen challenge ([1]; AUC unit = % change×minutes, 15 minutes, saline −394±127): −49±116 units
- total area under the curve for the change in resistance following allergen challenge ([1]; AUC unit = % change×minutes, saline 564±266): 54±90 units
- attenuation of the increase in airway resistance following allergen challenge ([1]; compared to saline treatment): 90%
- attenuation of the drop in airway compliance following allergen challenge ([1]; nebulized 5 mg/ml, 2 ml once per day, 5 days, compared to saline treatment): 87%
- decrease of % eosinophils in BALF [2, 5]: approximately 57%
- decrease of percentage of neutrophils in BALF [2, 5]: 42%
- eosinophil numbers in BALF less than saline ([2]; 48 hours after allergen challenge, did not reach significance): approximately 64%
- eosinophil numbers in BALF ([2]; 48 hours after allergen challenge, saline 4.3±1.7): 1.6±0.8 ×10^4 cells/ml
- total leukocytes in BALF ([2]; 48 hours after allergen challenge): 39.4 ×10^4 cell/ml
- total leukocytes in BALF ([2]; before allergen challenge): 34.5 ×10^4 cell/ml
- absolute number of neutrophils in BALF ([2]; after allergen challenge): 9.7±2.2 ×10^4 cells/ml
- neutrophil influx level vs pre-challenge ([2]; cynomolgus monkey, in vivo): not significantly higher than pre-challenge levels
- percentage of eosinophils before and after allergen challenge ([2]; cynomolgus monkey, in vivo): not significantly different
- neutrophils in BALF ([3]; 15 minutes after dust mite challenge, control 10.2): 1.3 ×10^4 cells/ml
- macrophages in BALF ([3]; 15 minutes after dust mite challenge, control 29.6): 19.4 ×10^4 cells/ml
- neutrophils in BALF ([3]; 6 hours after challenge, control 43.8): 32.2 ×10^4 cells/ml
- eosinophils in BALF ([3]; 24 hours after allergen challenge, control 3.2): 2.0 ×10^4 cells/ml
- macrophages in BALF ([3]; 24 hours after allergen challenge, control 24.1): 17.8 ×10^4 cells/ml
- inhibition of eosinophils ([3]; at 24 hours): slight mean inhibition
- lower numbers of eosinophils in BALF [4, 6]: 52%
- lower numbers of macrophages in BALF [4, 6]: 68%
- lower numbers of neutrophils in BALF [4, 6]: 69%
- effect on BALF cell numbers ([4]; 24 hours after dust mite challenge): not significant
- decrease of inflammatory cell migration into the BAL fluid ([4]; rabbit, in vivo): 68%
- eosinophils in BAL fluid ([4]; six hours after dust mite challenge, vehicle 8): 4 ×10^4 eosinophils/ml
- third cell count in BAL fluid (cell type not given) ([4]; six hours after dust mite challenge, vehicle 37): 12 ×10^4
- neutrophils in BAL fluid ([4]; six hours after dust mite challenge, vehicle 94): 29 ×10^4 neutrophils/ml
- percent neutrophils in BAL (ragweed-sensitized mice): 3.2%
